Experimental data reported in PMC4372254, “Unlocking the Diversity of Alkaloids in Catharanthus roseus: Nuclear Localization Suggests Metabolic Channeling in Secondary Metabolism” (Chemistry & Biology, 2015).

Legend:
[1] = target: T1, SGD (strictosidine glucosidase) (Catharanthus roseus, UniProt Q9M7N7); assay: in situ deglycosylation, […] min incubation; type: biochemical; conditions: strictosidine aglycone formed
T1 construct: recombinant, purified as THAS, expression system of Yerkes et al. 2008

[2] = target: T2, THAS (tetrahydroalstonine synthase) (Catharanthus roseus, UniProt A0A0F6SD02); assay: isothermal titration calorimetry; type: binding
T2 construct: His-tagged, vector pOPINF, expressed in E. coli Rosetta 2 pLysS, HisTrap purified
T2 sequence (A0A0F6SD02 1-356): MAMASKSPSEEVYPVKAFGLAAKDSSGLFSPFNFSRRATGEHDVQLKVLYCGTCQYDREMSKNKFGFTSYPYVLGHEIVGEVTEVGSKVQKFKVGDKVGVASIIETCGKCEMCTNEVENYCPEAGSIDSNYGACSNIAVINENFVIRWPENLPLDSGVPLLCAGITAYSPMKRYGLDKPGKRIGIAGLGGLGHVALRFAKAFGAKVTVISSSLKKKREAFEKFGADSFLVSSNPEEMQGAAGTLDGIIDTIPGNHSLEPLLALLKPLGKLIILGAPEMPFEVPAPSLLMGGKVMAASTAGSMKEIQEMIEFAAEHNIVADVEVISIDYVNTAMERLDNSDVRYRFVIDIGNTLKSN

Kd [2] [nM]	Structure (SMILES)	in situ deglycosylation, 10 min incubation [1]
–	C=C[C@H]1[C@H](O[C@@H]2O[C@H](CO)[C@@H](O)[C@H](O)[C@H]2O)OC=C(C(=O)OC)[C@H]1C[C@@H]1NCCc2c1[nH]c1ccccc21 [strictosidine]	strictosidine was completely converted to the aglycone
1500 ± 100	NC(=O)C1=CN([C@@H]2O[C@H](COP(=O)(O)OP(=O)(O)OC[C@H]3O[C@@H](n4cnc5c(N)ncnc54)[C@H](OP(=O)(O)O)[C@@H]3O)[C@@H](O)[C@H]2O)C=CC1 [NADPH]	–
